Entries after “also recorded” stand apart in the source; their conditions may differ.
Experiments:
PC-3 = assay: Confocal laser scanning microscopy apoptosis, PC-3; assay type: cell-based, human; settings: 100 nM, 48 hours
Description: Confocal Laser Scanning Microscopy. Cells were treated with cinchona alkaloids or PBS in culture medium for 48 hours. After 48 hr of culture, cells were co-stained with a rabbit polyclonal antitubulin antibody (Green Fluorescence) and the DNA-specific dye Toto-3 (Blue Fluorescence) and examined by laser scanning confocal microscopy using a Bio-Rad MRC-1024 Laser Scanning Confocal Microscope equipped with a Kr/Ar laser (Bio-Rad, Hercules, Calif., USA) mounted on a Nikon Eclipse E800 upright microscope with high numerical aperture objectives (Nikon, Melville, N.Y., USA), as described (F. M. Uckun, et al., 2010, Proc. Natl. Acad. Sci. USA, 107: 2902-7; F. M. Uckun., et al., 2010, British Journal of Haematology, 149: 508-17; F. M. Uckun, et al., 2013, Blood. 121:4348-54; F. M. Uckun et al., 2010, Proc. Natl Acad. Sci. USA 107:16852-57; F. M. Uckun et al., 2012, Proc. Natl Acad. Sci. USA 109:18072-77). Cell lines. BT-20 (ATCC HTB-19), a triple negative breast cancer cell line, PC-3 (ATCC CRL-1435) a CRPC cell line (small cell endocrine carcinoma) derived from a Stage IV prostate cancer patient with bone metastases were obtained from American Type Culture Collection (ATCC) (Manassas, Va.). […] Cells were washed in PBS and counterstained with the DNA-specific dye TOTO-3 (blue fluorescence) (Molecular Probes Inc., Eugene, Oreg.) for 10 min at a dilution of 1:1000. […]

[1] = test system: mammary tumors of MMTV/neu transgenic mice; assay: MMTV/neu transgenic mouse model of HER2+ breast cancer; assay type: in vivo; settings: 9-week observation; AP-8 2 mg/kg i.p. twice daily; paclitaxel 6.7 mg/kg; gemcitabine 33.7 mg/kg
Text: The predictive value of genetically engineered mouse (GEM) models to predict the clinical effectiveness of anti-cancer drugs is well established (Richmond A, Su Y. Mouse xenograft models vs GEM models for human cancer therapeutics. Dis Model Mech. 2008; 1(2-3):78-82. doi:10.1241-2/dmm.0.000976). We used the transgenic mouse model of HER2+ chemotherapy-resistant breast cancer to examine the in vivo anti-cancer activity of AP-8. Overexpression of the wild type Neu in the mammary glands of transgenic mice induces metastatic breast cancer. Accordingly, in the MMTV/Neu transgenic strain, the wild-type neu is overexpressed in the mammary gland under the control of the MMTV long terminal repeat. This animal model has been used to analyze the efficacy of new therapeutic approaches to prevent or treat Her2/neu overexpressing malignancies (Uckun, Dibirdik). MMTV/Neu transgenic mice [FVB/N-TgN(MMTV/neu)202MUL; Jackson Laboratory, Bar Harbor, Me.] were bred to produce multiple litters in a controlled SPF environment (12 h light/12 h-dark photoperiod, 22±1° C., 60±10% relative humidity). All mice were housed in microisolator cages (Lab Products, Inc., Maywood, N.Y., USA) containing autoclaved bedding in a controlled specific pathogen-free (SPF) environment (12 h light/12 h-dark photoperiod, 22±1° C., 60±10% relative humidity). Animal studies were approved by the institutional Animal Care and Use Committee of Drug Discovery Enterprises and all animal care procedures conformed to the Guide for the Care and Use of Laboratory Animals of the National Research Council. The genotype of mice was confirmed by multiplex polymerase chain reaction (PCR) tests as previously reported (F. M. Uckun et al., 2007, Bioorganic Med. Chem. 15:800-14; I. Dibirdik et al., 2010, J Nanomed and Nanotechnol. 1:001-4).
Neu transgenic mice carrying one or more tumors were randomly placed in the study. For the evaluation of tumor kinetics, tumor-bearing mice were randomly assigned to either vehicle control or treatment groups. Tumor growth was determined by the measurement of tumors with a caliper in three dimensions three days a week and expressed as tumor volume in cubic millimeters (mm^3). Tumor volumes were calculated using the formula for the volume of a prolate spheroid, V=4/3×3.14×length/2×width/2×depth/2. Due to the large heterogeneity in transgenic tumor volumes on day 0, tumor growth for each mouse was normalized to the starting volume for that particular tumor. Therefore, each mouse also served as its own control, and the tumor growth curves were generated to show the rate of change in tumor volumes.
AP-8 (50 μg˜2 mg/kg in 50 μL DMSO as vehicle) (10 mice, 12 target mammary tumors, Initial average tumor volume=787±125 mm^3) was administered by twice daily intraperitoneal injections on 5 consecutive days per week. Paclitaxel (10 mice, 13 target mammary tumors, Initial average tumor volume=554±79 mm^3) was administered intraperitoneally on days 1, 3, and 5 of each week at a dose level of 6.7 mg/kg ([…]). Gemcitabine (13 mice, 18 target mammary tumors, Initial average tumor volume=549±60 mm^3) was administered intraperitoneally on days 1 and 8 every 4 weeks at a dose level of 33.7 mg/kg (˜1 g/m^2). Control mice (8 mice, 10 mammary tumors, Initial average tumor volume=293±61 mm^3) were treated by twice daily intraperitoneal injections of vehicle alone (50 μL DMSO) on 5 consecutive days per week. […]

| Compound | signs of apoptosis by confocal imaging (PC-3) | tumor shrinkage and tumor growth [1] |
| --- | --- | --- |
| 2,4,6-Tri (9-O-dihydrocinchoninyl)pyrimidine [AP-5] | virtually all of the BT-20 or PC-3 cells treated with AP-5 showed signs of advanced apoptosis; also recorded: virtually all of the PC-3 cells treated with AP-5 showed signs of advanced apoptosis |  |
| CCC1CN2CCC1CC2C(Oc1cc(OC(c2ccnc3ccc(OC)cc23)C2CC3CCN2CC3CC)nc(OC(c2ccnc3ccc(OC)cc23)C2CC3CCN2CC3CC)n1)c1ccnc2ccc(OC)cc12 (centres unmarked) [AP-8, 2,4,6-Tri (9-O-dihydroquinidinyl)pyrimidine] |  | caused shrinkage of the tumor, completely arrested the tumor growth for 4 weeks, and markedly delayed the tumor progression between 4 weeks and 9 weeks |

Source: US11066421B1, “Synthetic cinchona alkaloids against cancer” (Ares Pharmaceuticals, LLC, priority 2021, dated 2021)
